Experimental data published in patent US9775857B2, “Lignans isolated from Lasia spinosa (L.) Thwait” (Hong Kong Baptist University, priority 2015, dated 2017).
In brackets after ≈: the same amount, converted by molar mass. Entries after “also recorded” stand apart in the source; their conditions may differ.

Experiments:
KYSE-450 = experiment: Cytotoxicity assay (MTT), KYSE-450; format: cell-based; conditions: 48 h, 1.56-50 μg/mL tested; for IC50: KYSE-450, human esophageal carcinoma cells, read-out: Cytotoxicity against KYSE-450, IC50; for Cytotoxicity against KYSE-450, IC50: human esophageal carcinoma cells
Procedure: (§1) Test compounds were dissolved in dimethyl sulfoxide (DMSO) to make stock solutions and further diluted in culture medium. Human esophageal carcinoma cell lines (KYSE-70, KYSE-150, KYSE-450 and KYSE-520) were cultured in RPMI 1640 or DMEM medium containing 10% fetal bovine serum and 1% antibiotics (Penicillin and strep). 3×10^3 cells/well were seeded in a 96-well plate and allowed to attach to the plate overnight. After the recovery, cells were treated with 1.56, 3.125, 6.25, 12.5, 25, 50 μg/mL of compounds in culture medium for 48 h. Then, 20 μL of MTT (5 mg/mL stock in PBS) per well was added into the medium (200 μL) and incubated for 4 h at 37° C. Finally, the culture medium was removed and 200 μL of DMSO were added. Absorbance of the solution was measured using microplate reader spectrophotometer (Bio-Rad Laboratories, Inc., Hercules, Calif.) at a wavelength of 570 nm.

KYSE-70 = experiment: Cytotoxicity assay (MTT), KYSE-70; format: cell-based; conditions: 48 h, 1.56-50 μg/mL tested; for IC50: KYSE-70, human esophageal carcinoma cells, read-out: Cytotoxicity against KYSE-70, IC50; for Cytotoxicity against KYSE-70, IC50: human esophageal carcinoma cells
Procedure: as §1

KYSE-150 = experiment: Cytotoxicity assay (MTT), KYSE-150; format: cell-based; conditions: human esophageal carcinoma cells, 1.56-50 μg/mL tested; for IC50: Homo sapiens, KYSE-150, 48 h, read-out: Cytotoxicity against KYSE-150, IC50; for Cytotoxicity against KYSE-150, IC50: 48 h
Procedure: as §1

KYSE-520 = experiment: Cytotoxicity assay (MTT), KYSE-520; format: cell-based; conditions: human esophageal carcinoma cells, 1.56-50 μg/mL tested; for IC50: Homo sapiens, KYSE-520, 48 h, read-out: Cytotoxicity against KYSE-520, IC50
Procedure: as §1

KYSE-150 cells = experiment: Tumor xenograft mouse model; format: in vivo, nude female mice; conditions: KYSE-150 xenograft
Procedure: The tumor xenograft mice were treated with a vehicle or compound 9 at 15 or 30 mg/kg once a day […] for 12 days. Tumor size was measured every two days and body weight was measured every day. On day 13, the mice were sacrificed, and tumor weight was measured (n=5, *p<0.05, **p<0.01, ***p<0.001, ****p<0.0001).
Six to eight weeks old nude female mice weighing about 16-20 g were purchased from the Laboratory Animal Services Center, the Chinese University of Hong Kong, and 2×10^6 KYSE-150 cells in […] saline were injected subcutaneously into the flanks of the mice. When the tumor volume reached about 100 mm^3, the mice were randomly divided into three groups (n=5). The control group was administered with saline, while compound 9 treatment groups were given different doses of 9 (15 or 30 mg/kg, respectively) by intraperitoneal injection. Tumor volume were measured by vernier caliper every two days for 12 days, and calculated according to the formula: Volume=(width)^2×length/2. At the end of observation, mice were killed to remove the tumors. Then the samples were fixed in 4% paraformaldehyde and embedded in paraffin. Five-micro-meter sections were stained with hematoxylin/eosin according to a standard procedure. Animal protocol was approved by the committee for Care of Laboratory Animals in the School of Chinese Medicine at the Hong Kong Baptist University.

[1] = 15 or 30 mg/kg once a day for 12 days

COc1cc(CC(C)C(O)(CO)Cc2cc(OC)c(O)c(OC)c2)ccc1O (stereo not shown) [Compound 3, 2-(4-Hydroxy-3,5-dimethoxybenzyl)-3-(4-hydroxy-3-methoxybenzyl)-1,2-butanediol]
IC50 (KYSE-450): > 50 µg/mL | IC50 (KYSE-70): > 50 µg/mL | IC50 (KYSE-150): 34.5 µg/mL (≈ 87.9 µM) | IC50 (KYSE-520): > 50 µg/mL

COc1cc(C[C@@H](CO)[C@H](CO)Cc2cc(OC)c(O)c(OC)c2)cc(OC)c1O [Compound 2, 5,5′-Dimethoxysecoiso-lariciresinol]
Cytotoxicity against KYSE-450, IC50 (KYSE-450): 39.21 μg/mL | Cytotoxicity against KYSE-450, IC50 (KYSE-450; listed as compound 2): ~50 μg/mL | Cytotoxicity against KYSE-70, IC50 (KYSE-70): 47.22 μg/mL | Cytotoxicity against KYSE-70, IC50 (KYSE-70; listed as compound 2): ~50 μg/mL | Cytotoxicity against KYSE-150, IC50 (KYSE-150): 49.63 μg/mL | Cytotoxicity against KYSE-150, IC50 (KYSE-150; listed as compound 2): ~50 μg/mL

COc1cc([C@H]2Oc3c(OC)cc(CCCO)cc3[C@@H]2CO)ccc1O [Compound 8, Dihydrodehydrodiconifery Alcohol]
IC50 (KYSE-450): > 50 µg/mL | IC50 (KYSE-70): > 50 µg/mL | IC50 (KYSE-150): ~30 µg/mL (≈ 83.2 µM) | Cytotoxicity against KYSE-150, IC50 (KYSE-150): 31.86 μg/mL | IC50 (KYSE-520): ~30 µg/mL (≈ 83.2 µM) | Cytotoxicity against KYSE-520, IC50 (KYSE-520; 48 h): 37.34 μg/mL

COc1cc([C@H]2OC[C@H]3[C@@H]2CO[C@@H]3c2cc(OC)c(O)c(OC)c2)cc(OC)c1O [Compound 9, Syringaresinol]
IC50 (KYSE-450): > 50 µg/mL | IC50 (KYSE-70): > 50 µg/mL | IC50 (KYSE-150): > 50 µg/mL | body weight (KYSE-150 cells; [1]): suppresses the body weight; also recorded: less body weight loss | toxic death (KYSE-150 cells; [1]): no toxic death | weight of tumor (KYSE-150 cells; 15 or 30 mg/kg once a day for 12 days, day 13): suppresses the weight of tumor | tumor growth / size of tumor (KYSE-150 cells; 15 or 30 mg/kg once a day for 12 days, vs control): suppresses the size of tumor; also recorded: significant tumor growth delay | H&E staining of the tumor tissue (histological manifestation) (KYSE-150 cells; 15 or 30 mg/kg, vs control (orderly and tightly)): obviously loose and messy | IC50 (KYSE-520): > 50 µg/mL
